The test system of one data set is Cycad Asian Scale. Description: Killing of scale insects / exterminating Cycad Asian Scale populations (general statements). Conditions: in vivo.
The conditions of data set [1]: can be used outdoors as well as indoors; cited from earlier work.

Take `CCOC(=O)CC(SP(=S)(OC)OC)C(=O)OCC` (centres unmarked) [Malathion, malathion]: the “usefulness in exterminating Cycad Asian Scale populations” value in the data set with Cycad Asian Scale is “particularly useful”. As for `CC(COc1ccc(Oc2ccccc2)cc1)Oc1ccccn1` (centres unmarked) [Nylar], the photostability result in data set [1] is “photostable”.

The values above are taken from US20090233940A1, “Insecticide Compositions” (priority 2008, published 2009).
